Results: patent publication US5756502A, “Quinazolinone derivatives as cholyecystokinin (CCK) ligands” (Warner-Lambert Company, priority 1995, dated 1998)
Where two headings read alike, the source gives them in different places. One block for each compound: values may come before it.

Tests used:
[1] = target: CCK-A receptor; assay: CCK-A receptor binding
Method: (§1) The biological activity of compounds of the present invention may be evaluated by employing an initial screening test which rapidly and accurately measures the binding of the tested compound to known CCK receptor sites. […] (See Hays, et al., Neuropeptides 1:53-62, 1980; and Satuer, et al., Science 208:1155-1156, 1980).
In displacement experiments, inhibition curves were analyzed by either logit-log plots or the iterative curve fitting computer program ALLFIT (DeLean, Munson, and Redbard, 1978) to provide estimates of the IC50 and nH (apparent Hill coefficient values). (IC50 values were defined as the concentration of test compound required to produce 50% inhibition of specific binding).
The inhibition constant (Ki) of the test compound was then calculated according to the Cheng-Prusoff equation: [formula] where [L] is the concentration of radiolabel and Ka is the equilibrium dissociation constant.
The Ki values for several representative compounds of the present invention are present in Table 1.
The following table represents the CCK-A and CCK-B receptor binding affinities of the compounds. [drawing 34]
The testing procedures are disclosed in Hays, et al., Neuropeptides 1:53-62, 1980; and Satuer, et al., Science 208:1155-1156, 1980.

[2] = tested on: CCK-A receptors; details: words; cited from earlier work
[3] = tested on: CCK-B receptors; details: words; cited from earlier work
[4] = target: T1, CCK-B receptor (Mus musculus, UniProt P56481); assay: CCK-B receptor binding (displacement of tritiated-pentagastrin from mouse cerebral cortical membranes)
T1 construct: from tissue; host or cells: cerebral cortex of male CFLP mice (membranes)
T1 sequence (P56481 1-453): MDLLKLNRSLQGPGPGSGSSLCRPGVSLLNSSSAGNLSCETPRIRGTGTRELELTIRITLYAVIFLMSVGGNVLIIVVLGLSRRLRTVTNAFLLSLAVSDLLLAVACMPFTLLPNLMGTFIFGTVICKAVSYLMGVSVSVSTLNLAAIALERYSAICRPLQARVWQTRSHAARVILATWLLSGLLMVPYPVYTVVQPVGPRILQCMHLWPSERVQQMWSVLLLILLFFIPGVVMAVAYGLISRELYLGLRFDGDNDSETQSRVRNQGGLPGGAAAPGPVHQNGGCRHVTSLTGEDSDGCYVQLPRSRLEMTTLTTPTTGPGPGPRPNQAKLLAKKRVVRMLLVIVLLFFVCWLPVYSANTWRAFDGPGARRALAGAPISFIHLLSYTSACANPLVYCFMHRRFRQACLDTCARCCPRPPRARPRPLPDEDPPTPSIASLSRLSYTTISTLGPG
Method: as §1
In this screening test, the cerebral cortices taken from male CFLP mice weighing between 30 to 40 g were dissected on ice, weighed, and homogenized in 10 volumes of 50 mM Tris-HCl buffer (pH 7.4 at 0°-4° C.). The resulting suspension was centrifuged, the supernate was discarded, and the pellet was washed by resuspension in Tris-HCl buffer followed by recentrifugation. The final pellet was resuspended in 20 volumes of […] buffer (pH 7.2 at 23° C.) containing 130 mM NaCl, […], […].
In saturation studies, cerebral cortical membranes were incubated at 23° C. for 120 minutes in a final volume of 500 μL of Hepes incubation buffer (pH 7.2) together with 0.2-20 nM tritiated-pentagastrin (Amersham International, England).
In the displacement experiments, membranes were incubated with a single concentration (2 nM) of ligand, together with increasing concentrations (10^-11 to 10^-6 M) of competitive test compound. In each case, the nonspecific binding was defined as that persisting in the presence of the unlabeled octapeptide CCK26-33 (10^-6 M)
Following incubation, radioactivity bound to membranes was separated from that free in solution by rapid filtration through Whatman GF/B filters and washed three times with 4 mL of ice cold Tris-HCl buffer. Filters from samples incubated with tritiated-pentagastrin were placed in polyethylene vials with 4 mL of scintillation cocktail, and the radioactivity was estimated by liquid scintillation spectrometry (efficiency 47-52%). […]
Saturation curves for specific tritiated-pentagastrin binding to mouse cortical membranes were analyzed by the methods of Scatchard (Ann. New York Acad. Sci. 51:660-672, 1949), and Hill (J. Physiol. 40:IV-VIII, 1910), to provide estimates for the maximum number of binding sites (Bmax) and the equilibrium dissociation constant (Ka)
In displacement experiments, inhibition curves were analyzed by either logit-log plots or the iterative curve fitting computer program ALLFIT (DeLean, Munson, and Redbard, 1978) to provide estimates of the IC50 and nH (apparent Hill coefficient values). […]
The inhibition constant (Ki) of the test compound was then calculated according to the Cheng-Prusoff equation: [formula] where [L] is the concentration of radiolabel and Ka is the equilibrium dissociation constant. […]

[5] = 2 nM tritiated-pentagastrin, Hepes buffer pH 7.2, 23° C., read-out: CCK-B (Ki)

Ki ([1]; read-out: CCK-A (Ki)): 0.385 µM
Compound: CC(C)Oc1cccc(-n2c(CNC(=O)Nc3ccc([N+](=O)[O-])cc3)nc3ccccc3c2=O)c1 [1 NH 4-NO2 Ph]

Ki ([1]; read-out: CCK-A (Ki)): 3.1 µM
Compound: CC(C)Oc1cccc(-n2c(CNC(=O)NCc3ccc(Br)cc3)nc3ccccc3c2=O)c1 [1 NH 4-BrPhCH2]

Ki ([1]; read-out: CCK-A (Ki)): 0.984 µM
Compound: CC(C)Oc1cccc(-n2c(CNC(=O)Nc3ccc(Br)cc3)nc3ccccc3c2=O)c1 [1 NH 4-BrPh, Urea, N-(4-bromophenyl)-N-[[3,4-dihydro-3-[3-(1-methylethoxy)phenyl]-4-2-quinazolinyl]methyl]]

Ki ([1]; read-out: CCK-A (Ki)): 1.63 µM
Compound: CC(C)Oc1cccc(-n2c(CCNC(=O)Nc3ccc(Br)cc3)nc3ccccc3c2=O)c1 [2 NH 4-BrPh, Urea, N-(4-bromophenyl)-N'-[2-[3,4-dihydro-3-[3-(1-methylethoxy)phenyl]-4-oxo-2-quinazolinyl]ethyl]]

Ki ([1]; bound printed in μM in the Ki, nM column, read-out: CCK-A Ki (cell in μM)): > 1 µM
Ki ([4]; bound printed in μM in the Ki, nM column, read-out: CCK-B Ki (cell in μM)): > 1 µM
Compound: Cc1ccc(S(=O)(=O)NC(=O)NCc2nc3ccccc3c(=O)n2-c2cccc(OC(C)C)c2)cc1 [1 NHSO2 4-CH3 Ph, Benzenesulfonamide, N-[[[[3,4-dihydro-[3-(1-methylethoxy)phenyl]-4-oxo-2-quinazolinyl]methyl]amino]carboxy]-4-methyl]

Second part, the compound before the results:

Compound: CCK-8S: sulfated octapeptide (CCK-8S)
affinity for CCK-A receptors [2]: high affinity
affinity for CCK-B receptors [3]: high affinity

Compound: gastrin: gastrin peptide sharing a common carboxy terminal pentapeptide sequence with CCK
affinity for CCK-A receptors [2]: lower affinity
affinity for CCK-B receptors [3]: high affinity

Compound: CC(C)Oc1cccc(-n2c(CCNC(=O)OCc3ccccc3)nc3ccccc3c2=O)c1 [2 O PhCH2]
Ki ([1]; read-out: CCK-A (Ki)): 2.77 µM
Ki [4, 5]: 0.768 µM

Compound: Cc1cccc(NC(=O)NCc2nc3ccccc3c(=O)n2-c2cccc(OC(C)C)c2)c1 [1 NH 3-MePh, Urea, N-[[3,4-dihydro-3-[3-(1-methylethoxy)phenyl]-4-2-quinazolinyl]methyl]-N-(3-methylphenyl)]
Ki ([1]; read-out: CCK-A (Ki)): 1.64 µM

Compound: CCK-8d: corresponding desulfated fragment CCK-8d
affinity for CCK-A receptors [2]: lower affinity

Compound: CC(C)Oc1cccc(-n2c(CNC(=O)c3cnc4ccccc4n3)nc3ccccc3c2=O)c1 [1 -- 2-Quinoxolinyl, 2-Quinoxalinecarboxamide, N-[[1,2-dihydro-3-[3-(1-methylethoxy)phenyl]-4-oxo-2-quinazolinyl]methyl]]
CCK-A, % @ 10 μM (in the Ki column) ([1]; @ 10 μM): 29%
Ki [4, 5]: 0.842 µM

Compound: CC(C)Oc1cccc(-n2c(CNC(=O)Nc3ccc(C(F)(F)F)cc3)nc3ccccc3c2=O)c1 [1 NH 4-CF3 Ph]
Ki ([1]; read-out: CCK-A (Ki)): 0.674 µM

Compound: CCK-4
affinity for CCK-A receptors [2]: lower affinity
affinity for CCK-B receptors [3]: high affinity

Compound: CCOC(=O)c1cccc(NC(=O)NCc2nc3ccccc3c(=O)n2-c2cccc(OC(C)C)c2)c1 [1 NH 3-COOEtPh, Benzoic Acid, 3-[[[3,4-dihydro-3-[3-(1-methylethoxy)phenyl]-4-oxo-2-quinazolinyl]methyl]amino]carbonylamino-, ethyl ester]
Ki ([1]; read-out: CCK-A (Ki)): 1.47 µM

Compound: CC(C)Oc1cccc(-n2c(CNC(=O)OCc3ccccc3)nc3ccccc3c2=O)c1
Ki [4, 5]: 0.62 µM
